Square brackets hold non-standard residues; d marks the D form. Peptide text beside a SMILES is read from it. * marks the point of attachment. Hexanoyl = CCCCCC(=O)*; Ahx = NCCCCCC(=O)O
Key:
[1] = tested on: zebrafish lateral line hair cells; experiment: Protection of zebrafish lateral line hair cells from aminoglycoside toxicity (hair cell survival); assay type: in vivo; details: for hair cell survival rate: 1 μM Dihexa
From the text: The data is presented as mean+1 standard deviation (s.d.) ***p<0.005. ****p<0.001, with the number of stars being the confidence for the measurements and the p (i.e., p-value) being the probability of obtaining a test statistic result at least as extreme as the one that was actually observed. It is to be appreciated the differences are considered significant at P<0.05. Note also that the 0 Dihexa concentration levels in FIG. 1 and FIG. 2 are control levels no protective Dihexa was introduced as just Neomycin and Gentamicin is present in the hair cells.
Such an example method of operation can be enabled by providing Dihexa concentrations for each ototoxin. […] Toxin concentrations and treatment times are selected so that in each case, a range of about 60% up to about 80% hair cell loss is achieved, sufficient to robustly detect protection. While the methodology described above provides desirable information for a variety of ototoxins, the Dihexa-mediated protection for neomycin, gentamicin, and kanamycin, as enabled herein, is the most desirable because these three antibiotics activate partially independent cell death pathways, such that a single compound may not universally protect hair cells from aminoglycoside toxicity (Owens et al., 2009; Coffin et al., 2009; Vlasits et al., 2012; Coffin et al., 2013).
As part of the analysis process, after treatment, hair cell survival is more often quantitatively assessed by labeling with either the vital dye DASPEI for assessment in live, anesthetized fish, or with an antibody to parvalbumin for quantification in fixed tissue (Harris et al., 2003; Owens et al., 2009; Coffin et al., 2009, 2013). DASPEI allows for rapid assessment with minimal tissue processing time, while immunofluorescence is used to validate DASPEI assessment scores. Labeled hair cells are thereafter viewed using fluorescence microscopy and quantified as described in the published literature (e.g., Harris et al., 2003; Coffin et al., 2009, 2013). […]

[2] = Short duration safety studies; assay type: in vivo
From the text: This is unsurprising since oncogenesis requires multiple mutations including both oncogene induction and tumor suppressor attenuation. Accordingly, Dihexa, as utilized herein, can also be delivered locally via intratympanic membrane injection of a Dihexa-containing hydrogel (e.g., Salt et al., 2011; Wang et al., 2011) as a way of the proof-of-principle that Dihexa is robustly otoprotective in for example, but not limited to, pre-clinical models.

rat dementia model = details: in vivo administration (McCoy et al., 2013; unpublished data); cited from earlier work
[3] = tested on: rat Parkinson's Disease model; details: in vivo administration (McCoy et al., 2013; unpublished data); cited from earlier work
rats = details: in vivo in rats (Owens et al., 2008, Rubel et al., 2011); cited from earlier work

In the case of CCCCCC(=O)N[C@@H](Cc1ccc(O)cc1)C(=O)N[C@H](C(=O)NCCCCCC(N)=O)[C@@H](C)CC [Dihexa] (Hexanoyl-Tyr-Ile-[Ahx]-NH2), the “protection from Neomycin-induced hair cell death” value ([1]; 1 μM Dihexa across Neomycin dose levels, FIG. 3) is reported as “robust protection”, the “hair cell survival rate” value ([1]; 50 μM Gentamycin toxicity, FIG. 2) is reported as “greater than 40%” and the “hair cell survival rate” value ([1]; 200 μM Neomycin toxicity, FIG. 1) is reported as “greater than 60%”. The neoplastic induction [2] was “lack of neoplastic induction”, the toxicity [2] was “no apparent toxicity” and the “symptoms in rat dementia model” value (rat dementia model) was “significantly attenuates symptoms”. The “symptoms in rat Parkinson's Disease model” value [3] was “significantly attenuates symptoms”.
For CCN1CCc2c(sc(NC(=O)Nc3ccc(Cl)cc3)c2C(N)=O)C1 [PROTO-1], the protection from aminoglycosides (rats) is given as “confers protection”.

Reference: patent publication US9475854B2, “Lead compound for otoprotection: targeting HGF signaling with dihexa” (Washington State University, priority 2014, dated 2016)
